Measured values published in patent US3969532A, “1-Aryl-3-(2-hydroxyethyl) thioureas for treating depression” (The Dow Chemical Company, priority 1975, dated 1976).
Like-named read-outs stand apart in the source and are kept apart here.

Tested on: reserpine-induced ptosis
Experiment: Antagonism of reserpine-induced ptosis in mice (antidepressant test)
Format: in vivo
Conditions: for inhibition of reserpine-induced ptosis (in words): comparative trials, dosages of 60 mg/kg (i.p.); for ED50: Mus musculus, 1.25 h
[1] = mice, compound oral 30 minutes before i.p. reserpine, ptosis noted 45 minutes after reserpine, read-out: ED50 (median effective dose protecting 50% of mice from reserpine-induced ptosis), oral
[2] = ip, mice, compound i.p. 30 minutes before i.p. reserpine, ptosis noted 45 minutes after reserpine, read-out: ED50 (median effective dose protecting 50% of mice from reserpine-induced ptosis), i.p.

Protocol: The antidepressant properties of the compounds employed in the methods of the present invention are determined by measuring their ability to counteract ptosis induced in animals by the intraperitoneal injection of reserpine. […] Forty-five minutes after the administration of reserpine, the presence or absence of ptosis is noted. The percent inhibition of ptosis is noted and the median effective dose (ED50) of each test ingredient which protected 50% of the test mice from reserpine-induced ptosis was calculated.

With `COc1ccc(NC(=S)NCCO)cc1OC` [3,4-dimethoxy] the “inhibition of reserpine-induced ptosis (in words)” value was “did not inhibit reserpine-induced ptosis”.
`Cc1ccc(CNC(=S)NCCO)c(C)c1` [Compound 1, 1-(2,4-dimethylbenzyl)-3-(2-hydroxyethyl)thiourea] showed an ED50 [1] of 6.8 mg/kg and an ED50 [2] of 11 mg/kg.
In the case of `COc1ccc(NC(=S)NCCO)c(C)c1` [Compound 2, 1-(4-methoxy-2-methylphenyl)-3-(2-hydroxyethyl)thiourea], the ED50 [1] is reported as 16.2 mg/kg and the ED50 [2] is reported as 10 mg/kg.
For `COc1ccccc1NC(=S)NCCO` [Compound 2-methoxy], the “inhibition of reserpine-induced ptosis (in words)” value was “did not inhibit reserpine-induced ptosis”.
Molecule `COc1ccc(NC(=S)NCCO)c(OC)c1` [Compound 3, 1-(2,4-dimethoxyphenyl)-3-(2-hydroxyethyl)thiourea] has an ED50 [2] of 38 mg/kg.
Work on `CN(C)CCC=C1c2ccccc2COc2ccccc21` [Doxepin] yielded an ED50 [1] of 27 mg/kg and an ED50 [2] of 27 mg/kg.
`CN(C)CCCN1c2ccccc2CCc2ccccc21` [Imipramine] showed an ED50 (po, read-out: ED50 (median effective dose protecting 50% of mice from reserpine-induced ptosis), oral) of 14 mg/kg.
